Assay: Dissolution of trans-PMD glucovanillin conjugate in water
Assay type: physicochemical
Conditions: solid 50 mg in water 0.1 ml
Text: The resultant solution was cooled to room temperature and purified by chromatography over silica by gradient elution using 1:1 EtOAc/hexane to remove residual diol followed by 1:10 MeOH/dichloromethane to afford the title compound as an odourless white solid (0.73 g, 74%).

COc1cc(C2O[C@H]3C[C@@H](C)CCC3C(C)(C)O2)ccc1O[C@@H]1O[C@H](CO)[C@@H](O)[C@H](O)[C@H]1O (mixture of isomers) [Example 2, Racemic trans-PMD Glucovanillin Conjugate]
dissolution in water: readily dissolve

From patent US12533323B2, “Slow-release formulation” (GLYCOSCIENCE, S.L., priority 2021, dated 2026)
